Test results: patent US8501953B2, “PKM2 modulators for use in the treatment of cancer” (Agios Pharmaceuticals, Inc, priority 2009, dated 2013)

Molecular target: PKM2 (Homo sapiens, UniProt P14618)
Test: PKM2 Assay (activation; LDH-coupled, NADH absorbance at 340 nm)
Type: biochemical
Conditions: PKM2 50 ng/well, ADP 0.7 mM, PEP 0.15 mM, no FBP in Reaction Mix
Experimental: • PKM2 stock enzyme solution was diluted in Reaction Buffer • 2 μL of compound was added into each well first, and then 180 μL of the Reaction Mix was added. • Reaction mixture with compound (without ADP) were incubated for 30 minutes at 4° C. • Plates were re-equilibrated to room temperature prior to adding 20 μL ADP to initiate the reaction. • Reaction progress was measured as changes in absorbance at 340 nm wavelength at room temperature (25° C.) Reaction Mix: PKM2 (50 ng/well), ADP (0.7 mM), PEP (0.15 mM), NADH (180 μM), LDH (2 units) in Reaction Buffer Reaction Buffer: 100 mM KCl, 50 mM Tris pH 7.5, 5 mM MgCl2, 1 mM DTT, 0.03% BSA.

Sequence of PKM2 (P14618 whole entry): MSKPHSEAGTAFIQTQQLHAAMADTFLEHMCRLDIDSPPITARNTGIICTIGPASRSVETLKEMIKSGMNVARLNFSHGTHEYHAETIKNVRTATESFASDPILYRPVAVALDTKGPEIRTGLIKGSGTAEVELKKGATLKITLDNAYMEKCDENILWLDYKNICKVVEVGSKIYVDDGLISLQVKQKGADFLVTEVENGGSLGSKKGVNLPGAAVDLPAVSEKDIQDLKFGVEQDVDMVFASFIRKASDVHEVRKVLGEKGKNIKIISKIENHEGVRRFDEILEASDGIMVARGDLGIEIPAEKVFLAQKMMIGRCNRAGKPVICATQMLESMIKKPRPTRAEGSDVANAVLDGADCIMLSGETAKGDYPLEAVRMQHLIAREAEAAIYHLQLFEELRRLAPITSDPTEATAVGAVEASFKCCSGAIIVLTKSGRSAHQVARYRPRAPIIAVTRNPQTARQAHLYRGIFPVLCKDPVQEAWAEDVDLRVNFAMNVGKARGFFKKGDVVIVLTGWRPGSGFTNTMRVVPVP

Row | Compound | AC50
1 | Cn1c(=O)oc2cc(F)c(S(=O)(=O)Nc3ccccc3)cc21 [drawing 56] | < 1 µM
2 | Cn1c(=O)oc2cc(F)c(S(=O)(=O)Nc3ccccc3)cc21 [drawing 242] | 1 to 10 µM
